Results reported in patent US7732604B2, “Triazolopyrazine derivatives” (Pfizer Inc., priority 2006, dated 2010).

Molecular target: T1, HGFR (Homo sapiens, UniProt P08581)
T1 construct: purchased Upstate 14-526
Assay: HGFR continuous-coupled spectrophotometric assay (tyrosine kinase activity on Met-2 substrate peptide)
Format: biochemical
Conditions: HGFR 50 nM, Met-2 peptide 0.5 mM, ATP 300 μM, 37° C., absorbance 340 nm; read-out: Ki

T1 sequence (P08581 974-1390 limits assumed): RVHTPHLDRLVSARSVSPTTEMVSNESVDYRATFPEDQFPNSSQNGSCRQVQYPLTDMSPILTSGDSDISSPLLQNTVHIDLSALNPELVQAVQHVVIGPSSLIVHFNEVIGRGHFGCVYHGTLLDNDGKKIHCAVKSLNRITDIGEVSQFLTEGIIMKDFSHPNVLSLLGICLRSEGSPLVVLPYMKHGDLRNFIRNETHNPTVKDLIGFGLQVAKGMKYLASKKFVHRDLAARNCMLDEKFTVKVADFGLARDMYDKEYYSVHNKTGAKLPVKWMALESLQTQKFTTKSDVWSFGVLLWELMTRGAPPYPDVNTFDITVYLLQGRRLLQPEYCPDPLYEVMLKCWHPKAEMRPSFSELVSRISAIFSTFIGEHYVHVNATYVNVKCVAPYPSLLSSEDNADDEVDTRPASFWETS

Going from `O=C(O)c1cnc2nnn(Cc3ccc4ncccc4c3)c2n1` [Example 194, 1-(quinolin-6-yl-methyl)-1H-[1,2,3]tri-azolo[4,5-b]pyra-zine-6-carboxylic acid] to `CNC(=O)c1cnc2nnn(Cc3ccc4ncccc4c3)c2n1` [Example 195, N-methyl-1-(quino-lin-6-yl-methyl)-1H-[1,2,3]tri-azolo[4,5-b]pyra-zine-6-carboxamide], the Ki falls from 811 nM to 117 nM (6.9-fold). The second binds more tightly here.

Compared with `CN1CCN(c2cnc3nnn(Cc4ccc5ncccc5c4)c3n2)CC1=O` [Example 89, 1-methyl-4-[1-(quino-lin-6-yl-methyl)-1H-[1,2,3]tri-azolo[4,5-b]pyra-zin-6-yl]pipe-razin-2-one], `O=C1CCN(c2cnc3nnn(Cc4ccc5ncccc5c4)c3n2)CCN1` [Example 79, 1-[1-(quinolin-6-yl-methyl)-1H-[1,2,3]tri-azolo[4,5-b]py-razin-6-yl]-14-di-azepan-5-one] is 3.7-fold lower in Ki: 41 nM for the first, 11 nM for the second. The second binds more tightly here.

Going from `CC1C(=O)NCCN1c1cnc2nnn(Cc3ccc4ncccc4c3)c2n1` (centres unmarked) [Example 75, 3-methyl-4-[1-(quino-lin-6-yl-methyl)-1H-[1,2,3]tri-azolo[4,5-b]py-razin-6-yl]pipe-razin-2-one] to `C[C@H]1COCCN1c1cnc2nnn(Cc3ccc4ncccc4c3)c2n1` [Example 199, 6-({6-[(3S)-3-methyl-morpholin-4-yl]-1H-[123]tri-azolo[45-b]pyra-zin-1-yl}methyl)quinoline], the Ki rises from 23 nM to 138 nM (6-fold).

First: OC[C@@H]1CC=CC[C@@H]1Nc1cnc2nnn(Cc3ccc4ncccc4c3)c2n1 [Example 119, [(1S,6R)-6-{[1-(quino-lin-6-yl-methyl)-1H-[1,2,3]tri-azolo[4,5-b]pyra-zin-6-yl]ami-no}cyclohex-3-en-1-yl]meth-anol]
Second: O[C@@H]1COC[C@H]1Nc1cnc2nnn(Cc3ccc4ncccc4c3)c2n1 [Example 131, (3S4R)-4-{[1-(quino-lin-6-yl-methyl)-1H-[123]tri-azolo[45-b]pyra-zin-6-yl]ami-no}tetrahydro-furan-3-ol]
The Ki of the first is 1.8-fold lower: 30 nM for the first, 54 nM for the second. The first binds more tightly here.

Compared with `NCCNc1cnc2nnn(Cc3ccc4ncccc4c3)c2n1` [Example 137, N-[1-(quinolin-6-yl-methyl)-1H-[1,2,3]tri-azolo[4,5-b]pyra-zin-6-yl]eth-ane-1,2-diamine], `CNc1cnc2nnn(Cc3ccc4ncccc4c3)c2n1` [Example 57, Methyl-(3-quinolin-6-ylmethyl-3H-[1,2,3]triazolo[4,5-b]pyrazin-5-yl)-amine] is 2.5-fold lower in Ki: 27 nM for the first, 11 nM for the second.

Compared with `CC(C)(O)CNc1cnc2nnn(Cc3ccc4ncccc4c3)c2n1` [Example 167, 2-methyl-1-{[1-(quino-lin-6-ylmeth-yl)-1H-[1,2,3]tri-azolo[4,5-b]pyra-zin-6-yl]ami-no}propan-2-ol], `FC(F)CNc1cnc2nnn(Cc3ccc4ncccc4c3)c2n1` [Example 144, N-(2,2-di-fluoroethyl)-1-(quino-lin-6-yl-methyl)-1H-[1,2,3]tri-azolo[4,5-b]pyra-zin-6-amine] is 4.3-fold lower in Ki: 13 nM for the first, 3 nM for the second. The second binds more tightly here.

Going from `CN(C)C(C(N)=O)C1CCN(c2cnc3nnn(Cc4ccc5ncccc5c4)c3n2)CC1` (centres unmarked) [Example 109, 2-(dimethyl-amino)-2-{1-[1-(quino-lin-6-yl-methyl)-1H-[1,2,3]tri-azolo[4,5-b]pyra-zin-6-yl]pipe-ridin-4-yl}acetamide] to `CN(C)C1CCN(c2cnc3nnn(Cc4ccc5ncccc5c4)c3n2)CC1` [Example 27], the Ki rises from 22 nM to 45 nM (2-fold).

First: CN(C)CC1(O)CCN(c2cnc3nnn(Cc4ccc5ncccc5c4)c3n2)C1 (centres unmarked) [Example 158, 3-[(di-methylamino)meth-yl]-1-[1-(quino-lin-6-yl-methyl)-1H-[1,2,3]tri-azolo[4,5-b]pyra-zin-6-yl]pyrro-lidin-3-ol]
Second: CN[C@@H]1CCN(c2cnc3nnn(Cc4ccc5ncccc5c4)c3n2)C1 [Example 134, (3R)-N-methyl-1-[1-(quino-lin-6-yl-methyl)-1H-[1,2,3]tri-azolo[4,5-b]pyra-zin-6-yl]pyrro-lidin-3-amine]
The Ki of the first is 4.4-fold higher: 31 nM for the first, 7 nM for the second.

Going from `FC1(F)CCN(C2CCN(c3cnc4nnn(Cc5ccc6ncccc6c5)c4n3)C2)C1` (centres unmarked) [Example 149, 6-{[6-(3,3-di-fluoro-1,3′-bi-pyrrolidin-1′-yl)-1H-[1,2,3]tri-azolo[4,5-b]pyra-zin-1-yl]meth-yl}quinoline] to `O[C@@H]1C[C@H]2CN(c3cnc4nnn(Cc5ccc6ncccc6c5)c4n3)CCN2C1` [Example 105, (7R,8aS)-2-[1-(quino-lin-6-yl-methyl)-1H-[1,2,3]tri-azolo[4,5-b]pyra-zin-6-yl]octa-hydropyrro-lo[12-a]pyra-zin-7-ol], the Ki rises from 15 nM to 29 nM (1.9-fold).

Compared with `CC(C)(CNc1cnc2nnn(Cc3ccc4ncccc4c3)c2n1)NC(=O)OC(C)(C)C` [Example 188, tert-butyl(1,1-di-methyl-2-{[1-(quino-lin-6-yl-methyl)-1H-[1,2,3]tri-azolo[4,5-b]pyra-zin-6-yl]ami-no}ethyl)carbamate], `CN(C)C(=O)CCNc1cnc2nnn(Cc3ccc4ncccc4c3)c2n1` [Example 121, N,N-dimethyl-N~3~-[1-(quino-lin-6-yl-methyl)-1H-[1,2,3]tri-azolo[4,5-b]pyra-zin-6-yl]-beta-alaninamide] is 4.7-fold lower in Ki: 103 nM for the first, 22 nM for the second.

Going from `Cn1nc(C(F)(F)F)cc1-c1cnc2nnn(Cc3ccc4ncccc4c3)c2n1` [Example 64, 6-[6-(2-Methyl-5-trifluoromethyl-2H-pyrazol-3-yl)-[1,2,3]triazolo[4,5-b]pyrazin-1-ylmethyl]-quinoline] to `COC(=O)Cn1cc(-c2cnc3nnn(Cc4ccc5ncccc5c4)c3n2)cn1` [Example 66, [4-(3-Quinolin-6-ylmethyl-3H-[1,2,3]triazolo[4,5-b]pyrazin-5-yl)-pyrazol-1-yl]-acetic acid methyl ester], the Ki rises from 4 nM to 18 nM (4.5-fold). The first binds more tightly here.

`CCOCC(O)CNc1cnc2nnn(Cc3ccc4ncccc4c3)c2n1` (centres unmarked) [Example 132, 1-ethoxy-3-{[1-(quino-lin-6-yl-methyl)-1H-[123]tri-azolo[45-b]pyra-zin-6-yl]ami-no}propan-2-ol] and `c1cnc2ccc(Cn3nnc4ncc(NC5CCOC5)nc43)cc2c1` (centres unmarked) [Example 146, 1-(quinolin-6-yl-methyl)-N-(tetra-hydrofuran-3-yl)-1H-[1,2,3]triazolo[4,5-b]pyra-zin-6-amine] are within 1.5-fold of each other in Ki: 8 nM for the first, 7 nM for the second.

Going from `OCC1CCCN1c1cnc2nnn(Cc3ccc4ncccc4c3)c2n1` (centres unmarked) [Example 103, {1-[1-(quinolin-6-yl-methyl)-1H-[1,2,3]tri-azolo[4,5-b]pyra-zin-6-yl]pyrro-lidin-2-yl}methanol] to `OC[C@@H]1CCCN1c1cnc2nnn(Cc3ccc4ncccc4c3)c2n1` [Example 76, {(2S)-1-[1-(quino-lin-6-yl-methyl)-1H-[1,2,3]tri-azolo[4,5-b]pyra-zin-6-yl]pyr-rolidin-2-yl}methanol], the Ki rises from 39 nM to 65 nM (1.7-fold). The first binds more tightly here.

`NC(=O)C1CCN(c2cnc3nnn(Cc4ccc5ncccc5c4)c3n2)C1` (centres unmarked) [Example 177, 1-[1-(quinolin-6-yl-methyl)-1H-[1,2,3]tri-azolo[4,5-b]pyra-zin-6-yl]pyrro-lidine-3-carboxamide] and `O[C@@H]1CCN(c2cnc3nnn(Cc4ccc5ncccc5c4)c3n2)C[C@H]1O` [Example 99, (3R,4R)-1-[1-(quino-lin-6-yl-methyl)-1H-[1,2,3]tri-azolo[4,5-b]pyra-zin-6-yl]pipe-ridine-3,4-diol] are within 1.5-fold of each other in Ki: 29 nM for the first, 21 nM for the second.

First: CN(CCS(C)(=O)=O)c1cnc2nnn(Cc3ccc4ncccc4c3)c2n1 [Example 85, N-methyl-N-[2-(meth-ylsulfonyl)ethyl]-1-(quino-lin-6-yl-methyl)-1H-[1,2,3]tri-azolo[4,5-b]pyra-zin-6-amine]
Second: CCc1noc(CN(C)c2cnc3nnn(Cc4ccc5ncccc5c4)c3n2)n1 [Example 91, N-[(3-ethyl-124-oxa-diazol-5-yl)meth-yl]-N-meth-yl-1-(quino-lin-6-yl-methyl)-1H-[1,2,3]tri-azolo[4,5-b]pyra-zin-6-amine]
The Ki of the first is 2.1-fold lower: 12 nM for the first, 25 nM for the second.

Going from `FC(F)c1nnc2n1CCN(c1cnc3nnn(Cc4ccc5ncccc5c4)c3n1)C2` [Example 108, 6-({6-[3-(di-fluoromethyl)-5,6-di-hydro[1,2,4]tri-azolo[4,3-a]pyrazin-7(8H)-yl]-1H-[1,2,3]tri-azolo[4,5-b]pyra-zin-1-yl}meth-yl)quinoline] to `c1cnc2ccc(Cn3nnc4ncc(N5CCc6[nH]ncc6C5)nc43)cc2c1` [Example 98, 6-{[6-(1,4,6,7-tetra-hydro-5H-pyra-zolo[4,3-c]pyri-din-5-yl)-1H-[1,2,3]tri-azolo[4,5-b]pyra-zin-1-yl]meth-yl}quinoline], the Ki falls from 26 nM to 13 nM (2-fold).

Compared with `OCC[C@H]1CN(c2cnc3nnn(Cc4ccc5ncccc5c4)c3n2)C[C@H]1CO` [Example 110, 2-{(3R,4S)-4-(hydroxy-methyl)-1-[1-(quino-lin-6-yl-methyl)-1H-[1,2,3]tri-azolo[4,5-b]pyra-zin-6-yl]pyrro-lidin-3-yl}eth-anol], `CS(=O)(=O)C1CCN(c2cnc3nnn(Cc4ccc5ncccc5c4)c3n2)C1` (centres unmarked) [Example 81, 6-({6-[3-(meth-ylsulfonyl)pyr-rolidin-1-yl]-1H-[1,2,3]tri-azolo[4,5-b]pyra-zin-1-yl}meth-yl)quinoline] is 1.9-fold higher in Ki: 23 nM for the first, 43 nM for the second.

Compared with `O=C(O)c1ccc(-c2cnc3nnn(Cc4ccc5ncccc5c4)c3n2)cc1Cl` [Example 39, 2-chloro-4-(3-(quinolin-6-ylmethyl)-3H-[1,2,3]triazolo[4,5-b]pyrazin-5-yl)benzoic acid], `O=c1[nH]cccc1CNc1cnc2nnn(Cc3ccc4ncccc4c3)c2n1` [Example 115, 3-({[1-(quinolin-6-yl-methyl)-1H-[1,2,3]tri-azolo[4,5-b]pyra-zin-6-yl]ami-no}meth-yl)pyridin-2(1H)-one] is 1.8-fold lower in Ki: 21 nM for the first, 12 nM for the second.

`C[C@H](c1ccc2c(c1)OCCO2)n1nnc2ncc(-c3cnn(C)c3)nc21` [Example 185, 1-[(R)-1-(2,3-Dihydro-benzo[1,4]dioxin-6-yl)-eth-yl]-6-(1-meth-yl-1H-pyra-zol-4-yl)-1H-[1,2,3]tri-azolo[4,5-b]pyrazine] was tested, and the Ki was 98 nM.

Same assay, conditions: Ki, HGFR 50 nM, Met-2 peptide 0.5 mM, ATP 300 μM, 37° C., absorbance 340 nm

In the case of `Cc1nccn1CC1(O)CCN(c2cnc3nnn(Cc4ccc5ncccc5c4)c3n2)C1` (centres unmarked) [Example 104, 3-[(2-methyl-1H-imi-dazol-1-yl)meth-yl]-1-[1-(quino-lin-6-yl-methyl)-1H-[1,2,3]tri-azolo[4,5-b]pyra-zin-6-yl]pyrro-lidin-3-ol], the Ki is reported as 49 nM.
